Results from the supplement of paper PMC10627819.

Legend:
[1] = test system: S. aureus DSM 20231; experiment: Bliss interaction score (quartile over a dose matrix) (fitness difference); higher = more antagonism (negative = synergy)
Outline: (§1)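 The Bliss score takes observed fitness and subtracts the expected fitness, calculated as a product of single-drug fitness values. Those single-drug values were inferred from the combination data. Fitness is OD595 at entry into stationary phase divided by the plate's robust no-drug mean, capped at 1, and the score is summarised by quartiles across technical, biological and donor/recipient replicates.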

[2] = test system: B. subtilis 168; experiment: as above
Outline: as §1

[3] = test system: S. pneumoniae D39V; experiment: as above
Outline: as §1

[4] = test system: S. aureus Newman; experiment: as above
Outline: as §1

[5] = test system: S. aureus DSM 20231; experiment: fitness (endpoint OD595 vs no drug) (fraction); higher = more growth
Outline: (§2)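 Bacterial growth was followed in 384-well plates seeded at OD595 0.01, with 30 µl per well, or 55 µl for S. pneumoniae, in TSB, LB Lennox or CY at 37 °C. OD595 was read every 30 min for 14 h, and each reading had the first reading subtracted as background. Fitness is the background-corrected optical density at entry into stationary phase divided by the robust mean of the no-drug control wells. This ratio is capped at 1.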

[6] = test system: S. pneumoniae D39V; experiment: as above
Outline: as §2

[7] = test system: S. aureus Newman; experiment: as above
Outline: as §2
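Wherever Bliss interaction score (quartile over a dose matrix) is given: first quartile when negative (synergy) and third quartile when positive (antagonism).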

CO/N=C(\C(=O)N[C@@H]1C(=O)N2C(C(=O)[O-])=C(C[N+]3(C)CCCC3)CS[C@H]12)c1csc(N)n1 [Cefepime] + CN[C@H](CC(C)C)C(=O)N[C@H]1C(=O)N[C@@H](CC(N)=O)C(=O)N[C@H]2C(=O)N[C@H]3C(=O)N[C@H](C(=O)N[C@H](C(=O)O)c4cc(O)cc(O)c4-c4cc3ccc4O)[C@H](O)c3ccc(c(Cl)c3)Oc3cc2cc(c3O[C@@H]2O[C@H](CO)[C@@H](O)[C@H](O)[C@H]2O[C@H]2C[C@](C)(N)[C@H](O)[C@H](C)O2)Oc2ccc(cc2Cl)[C@H]1O [Vancomycin]
Conditions | Bliss interaction score
[1] | 0.0422
[2] | -0.154
[3] | -0.121
[4] | -0.0634

Conditions | fitness
[5], first compound 0.125 µg/mL, partner 0.1875 µg/mL | 0.872
[5], first compound 0.125 µg/mL, partner 0.375 µg/mL | 0.868
[5], first compound 0.125 µg/mL, partner 0.75 µg/mL | 0.936
[5], first compound 0.25 µg/mL, partner 0.1875 µg/mL | 0.917
[5], first compound 0.25 µg/mL, partner 0.375 µg/mL | 0.902
[5], first compound 0.25 µg/mL, partner 0.75 µg/mL | 0.885
[5], first compound 0.5 µg/mL, partner 0.1875 µg/mL | 0.883
[5], first compound 0.5 µg/mL, partner 0.375 µg/mL | 0.864
[5], first compound 0.5 µg/mL, partner 0.75 µg/mL | 0.906
[6], first compound 0.007 µg/mL, partner 0.125 µg/mL | 0.992
[6], first compound 0.007 µg/mL, partner 0.25 µg/mL | 0.807
[6], first compound 0.007 µg/mL, partner 0.5 µg/mL | 0.0222
[6], first compound 0.0078 µg/mL, partner 0.03125 µg/mL | 0.977
[6], first compound 0.0078 µg/mL, partner 0.0625 µg/mL | 0.884
[6], first compound 0.0078 µg/mL, partner 0.125 µg/mL | 0.694
[6], first compound 0.014 µg/mL, partner 0.125 µg/mL | 0.944
[6], first compound 0.014 µg/mL, partner 0.5 µg/mL | 0.029
[6], first compound 0.0155 µg/mL, partner 0.03125 µg/mL | 0.879
[6], first compound 0.028 µg/mL, partner 0.125 µg/mL | 0.585
[6], first compound 0.028 µg/mL, partner 0.5 µg/mL | 0.0343
[6], first compound 0.031 µg/mL, partner 0.0625 µg/mL | 0.308
[6], first compound 0.031 µg/mL, partner 0.125 µg/mL | 0.269
[7], first compound 0.125 µg/mL, partner 0.1875 µg/mL | 0.945
[7], first compound 0.125 µg/mL, partner 0.375 µg/mL | 0.946
[7], first compound 0.125 µg/mL, partner 0.75 µg/mL | 0.922
[7], first compound 0.25 µg/mL, partner 0.1875 µg/mL | 0.879
[7], first compound 0.25 µg/mL, partner 0.375 µg/mL | 0.867
[7], first compound 0.25 µg/mL, partner 0.75 µg/mL | 0.858
[7], first compound 0.5 µg/mL, partner 0.1875 µg/mL | 0.791
[7], first compound 0.5 µg/mL, partner 0.375 µg/mL | 0.802
[7], first compound 0.5 µg/mL, partner 0.75 µg/mL | 0.774

CO/N=C(\C(=O)N[C@@H]1C(=O)N2C(C(=O)[O-])=C(C[N+]3(C)CCCC3)CS[C@H]12)c1csc(N)n1 [Cefepime] + COc1c(N2C[C@@H]3CCCN[C@@H]3C2)c(F)cc2c(=O)c(C(=O)O)cn(C3CC3)c12 [Moxifloxacin]
Conditions | Bliss interaction score
[1] | -0.101
[2] | 0.0325
[3] | -0.0484
[4] | 0.0732

Conditions | fitness
[5], first compound 0.125 µg/mL, partner 0.0075 µg/mL | 0.664
[5], first compound 0.125 µg/mL, partner 0.015 µg/mL | 0.681
[5], first compound 0.125 µg/mL, partner 0.03 µg/mL | 0.616
[5], first compound 0.25 µg/mL, partner 0.0075 µg/mL | 0.69
[5], first compound 0.25 µg/mL, partner 0.015 µg/mL | 0.682
[5], first compound 0.25 µg/mL, partner 0.03 µg/mL | 0.592
[5], first compound 0.5 µg/mL, partner 0.0075 µg/mL | 0.766
[5], first compound 0.5 µg/mL, partner 0.015 µg/mL | 0.641
[5], first compound 0.5 µg/mL, partner 0.03 µg/mL | 0.565
[6], first compound 0.007 µg/mL, partner 0.0312 µg/mL | 0.146
[6], first compound 0.007 µg/mL, partner 0.0625 µg/mL | 0.0456
[6], first compound 0.007 µg/mL, partner 0.125 µg/mL | 0.0274
[6], first compound 0.0078 µg/mL, partner 0.005 µg/mL | ≥ 1
[6], first compound 0.0078 µg/mL, partner 0.01 µg/mL | 0.981
[6], first compound 0.0078 µg/mL, partner 0.02 µg/mL | ≥ 1
[6], first compound 0.014 µg/mL, partner 0.0312 µg/mL | 0.137
[6], first compound 0.014 µg/mL, partner 0.0625 µg/mL | 0.0527
[6], first compound 0.014 µg/mL, partner 0.125 µg/mL | 0.0539
[6], first compound 0.0155 µg/mL, partner 0.005 µg/mL | 0.987
[6], first compound 0.0155 µg/mL, partner 0.01 µg/mL | 0.971
[6], first compound 0.0155 µg/mL, partner 0.02 µg/mL | ≥ 1
[6], first compound 0.028 µg/mL, partner 0.0312 µg/mL | 0.077
[6], first compound 0.028 µg/mL, partner 0.0625 µg/mL | 0.0286
[6], first compound 0.028 µg/mL, partner 0.125 µg/mL | 0.0219
[6], first compound 0.031 µg/mL, partner 0.02 µg/mL | 0.805
[7], first compound 0.125 µg/mL, partner 0.0075 µg/mL | 0.748
[7], first compound 0.125 µg/mL, partner 0.015 µg/mL | 0.616
[7], first compound 0.25 µg/mL, partner 0.0075 µg/mL | 0.738
[7], first compound 0.25 µg/mL, partner 0.015 µg/mL | 0.615
[7], first compound 0.5 µg/mL, partner 0.0075 µg/mL | 0.695

fitness, [5], one replicate
Conditions | first compound 0.125 µg/mL | first compound 0.25 µg/mL | first compound 0.5 µg/mL
partner 0.06 µg/mL | 0.645 | 0.622 | 0.579
partner 0.12 µg/mL | 0.469 | 0.521 | 0.482

CO/N=C(\C(=O)N[C@@H]1C(=O)N2C(C(=O)[O-])=C(C[N+]3(C)CCCC3)CS[C@H]12)c1csc(N)n1 [Cefepime] + COc1ccc(C[C@H](N)C(=O)N[C@H]2[C@@H](O)[C@H](n3cnc4c(N(C)C)ncnc43)O[C@@H]2CO)cc1 [Puromycin]
Conditions | Bliss interaction score
[1] | 0.0605
[2] | 0.0941
[3] | 0.132
[4] | -0.0741

Conditions | fitness
[5], first compound 0.125 µg/mL, partner 0.39 µg/mL | 0.867
[5], first compound 0.125 µg/mL, partner 0.78 µg/mL | ≥ 1
[5], first compound 0.125 µg/mL, partner 1.56 µg/mL | 0.965
[5], first compound 0.25 µg/mL, partner 0.39 µg/mL | 0.932
[5], first compound 0.25 µg/mL, partner 0.78 µg/mL | 0.951
[5], first compound 0.25 µg/mL, partner 1.56 µg/mL | 0.924
[5], first compound 0.5 µg/mL, partner 0.78 µg/mL | 0.952
[5], first compound 0.5 µg/mL, partner 1.56 µg/mL | 0.907
[6], first compound 0.007 µg/mL, partner 1 µg/mL | ≥ 1
[6], first compound 0.007 µg/mL, partner 2 µg/mL | 0.993
[6], first compound 0.007 µg/mL, partner 4 µg/mL | 0.873
[6], first compound 0.014 µg/mL, partner 1 µg/mL | ≥ 1
[6], first compound 0.014 µg/mL, partner 2 µg/mL | ≥ 1
[6], first compound 0.014 µg/mL, partner 4 µg/mL | 0.876
[6], first compound 0.028 µg/mL, partner 1 µg/mL | 0.961
[6], first compound 0.028 µg/mL, partner 2 µg/mL | 0.944
[6], first compound 0.028 µg/mL, partner 4 µg/mL | 0.771
[7], first compound 0.125 µg/mL, partner 0.39 µg/mL | 0.898
[7], first compound 0.125 µg/mL, partner 0.78 µg/mL | 0.94
[7], first compound 0.125 µg/mL, partner 1.56 µg/mL | 0.9
[7], first compound 0.25 µg/mL, partner 0.39 µg/mL | 0.831
[7], first compound 0.25 µg/mL, partner 0.78 µg/mL | 0.865
[7], first compound 0.25 µg/mL, partner 1.56 µg/mL | 0.865
[7], first compound 0.5 µg/mL, partner 0.39 µg/mL | 0.728
[7], first compound 0.5 µg/mL, partner 0.78 µg/mL | 0.764
[7], first compound 0.5 µg/mL, partner 1.56 µg/mL | 0.775

fitness, one replicate
Conditions | first compound 0.0078 µg/mL | first compound 0.0155 µg/mL | first compound 0.031 µg/mL | first compound 0.125 µg/mL | first compound 0.25 µg/mL | first compound 0.5 µg/mL
[5], partner 3.12 µg/mL | – | – | – | 0.956 | 0.911 | 0.871
[5], partner 6.24 µg/mL | – | – | – | 0.781 | 0.857 | 0.716
[6], partner 1 µg/mL | 0.979 | 0.896 | 0.42 | – | – | –
[6], partner 2 µg/mL | 0.927 | 0.881 | 0.449 | – | – | –
[6], partner 4 µg/mL | 0.868 | 0.845 | 0.314 | – | – | –
